Test results reported in PMC5218480 (PLoS ONE, 2017).

Test system: MV-4-11 cells
Assay: Gene expression microarray analysis (Affymetrix PrimeView) and GSEA
Type: cell-based, human
Design: RFU PODN (11730768_x_at) / Fold change /veh PODN (11730768_x_at) / RFU LINC00158 (11744669_a_at) / Fold change /veh LINC00158 (11744669_a_at) / RFU DUSP10 (11751237_a_at) / Fold change /veh DUSP10 (11751237_a_at) / RFU ID3 (11757404_x_at) / Fold change /veh ID3 (11757404_x_at) / RFU PLEKHG5 (11737974_s_at) / Fold change /veh PLEKHG5 (11737974_s_at) / RFU LRRC4B (11730491_at) / Fold change /veh LRRC4B (11730491_at) / RFU GIMAP4 (11747438_a_at) / Fold change /veh GIMAP4 (11747438_a_at) / RFU KRT8 (11758183_x_at) / Fold change /veh KRT8 (11758183_x_at) / RFU CNN1 (11734310_a_at) / Fold change /veh CNN1 (11734310_a_at) / RFU VPS37D (11726825_at) / Fold change /veh VPS37D (11726825_at) / RFU C10orf10 (11716522_x_at) / Fold change /veh C10orf10 (11716522_x_at) / RFU KIR2DL2 /// KIR2DL4 /// KIR2DL5A /// KIR2DL5B /// KIR2DS1 /// KIR2DS2 /// KIR2DS3 /// KIR2DS4 /// KIR3DL3 /// KIR3DL3 /// KIR3DS1 (11738374_at) / Fold change /veh KIR2DL2 /// KIR2DL4 /// KIR2DL5A /// KIR2DL5B /// KIR2DS1 /// KIR2DS2 /// KIR2DS3 /// KIR2DS4 /// KIR3DL3 /// KIR3DL3 /// KIR3DS1 (11738374_at) / RFU C1QL1 (11718748_at) / Fold change /veh C1QL1 (11718748_at) / RFU TMPRSS4 (11747572_a_at) / Fold change /veh TMPRSS4 (11747572_a_at) / RFU HAMP (11756126_x_at) / Fold change /veh HAMP (11756126_x_at) / RFU RNFT2 (11725882_a_at) / Fold change /veh RNFT2 (11725882_a_at) / RFU NR4A2 (11747474_a_at) / Fold change /veh NR4A2 (11747474_a_at) / RFU ABCC12 (11746883_a_at) / Fold change /veh ABCC12 (11746883_a_at) / RFU TMEM136 (11760407_x_at) / Fold change /veh TMEM136 (11760407_x_at) / RFU CLDN22 /// WWC2 (11732394_at) / Fold change /veh CLDN22 /// WWC2 (11732394_at) / RFU HLA-DPB1 (11760878_x_at) / Fold change /veh HLA-DPB1 (11760878_x_at) / RFU SPINT1 (11716480_a_at) / Fold change /veh SPINT1 (11716480_a_at) / RFU GAP43 (11754022_s_at) / Fold change /veh GAP43 (11754022_s_at) / RFU A4GNT (11735810_at) / Fold change /veh A4GNT (11735810_at) / RFU PRB3 (11715151_x_at) / Fold change /veh PRB3 (11715151_x_at) / RFU TUBB4B (11761932_at) / Fold change /veh TUBB4B (11761932_at) / RFU CAPN14 (11732068_a_at) / Fold change /veh CAPN14 (11732068_a_at) / RFU TMCC2 (11721928_a_at) / Fold change /veh TMCC2 (11721928_a_at) / RFU IRGQ (11745062_a_at) / Fold change /veh IRGQ (11745062_a_at) / RFU FAM174B (11720279_a_at) / Fold change /veh FAM174B (11720279_a_at) / RFU TMPRSS4 (11748680_a_at) / Fold change /veh TMPRSS4 (11748680_a_at) / RFU FAM212B (11763350_a_at) / Fold change /veh FAM212B (11763350_a_at) / RFU PLEKHG5 (11743358_a_at) / Fold change /veh PLEKHG5 (11743358_a_at) / RFU ZSCAN30 (11745921_a_at) / Fold change /veh ZSCAN30 (11745921_a_at) / RFU CMKLR1 (11741424_a_at) / Fold change /veh CMKLR1 (11741424_a_at) / RFU LOC101060620 /// MAPK8IP1 (11723275_at) / Fold change /veh LOC101060620 /// MAPK8IP1 (11723275_at) / RFU SPTSSB (11747773_x_at) / Fold change /veh SPTSSB (11747773_x_at) / RFU PRSS12 (11739890_at) / Fold change /veh PRSS12 (11739890_at) / RFU BIN1 (11741810_x_at) / Fold change /veh BIN1 (11741810_x_at) / RFU WNT11 (11732464_a_at) / Fold change /veh WNT11 (11732464_a_at) / RFU C10orf10 (11716521_a_at) / Fold change /veh C10orf10 (11716521_a_at) / RFU C5orf56 (11738089_at) / Fold change /veh C5orf56 (11738089_at) / RFU CYB561 (11721691_x_at) / Fold change /veh CYB561 (11721691_x_at) / RFU ANKRD19P (11752326_a_at) / Fold change /veh ANKRD19P (11752326_a_at) / RFU OR2T12 /// OR2T33 /// OR2T8 (11738714_s_at) / Fold change /veh OR2T12 /// OR2T33 /// OR2T8 (11738714_s_at) / RFU VCAN (11748164_a_at) / Fold change /veh VCAN (11748164_a_at) / RFU JSRP1 (11732532_at) / Fold change /veh JSRP1 (11732532_at) / RFU KRTAP10-11 (11738290_x_at) / Fold change /veh KRTAP10-11 (11738290_x_at) / RFU MYO3A (11730013_a_at) / Fold change /veh MYO3A (11730013_a_at) / RFU EBF3 (11725865_a_at) / Fold change /veh EBF3 (11725865_a_at) / RFU CAMK2N1 (11719241_x_at) / Fold change /veh CAMK2N1 (11719241_x_at) / RFU C5orf56 (11738088_a_at) / Fold change /veh C5orf56 (11738088_a_at) / RFU OLFML3 (11715873_a_at) / Fold change /veh OLFML3 (11715873_a_at) / RFU LOC100653217 /// NTM (11731650_a_at) / Fold change /veh LOC100653217 /// NTM (11731650_a_at) / RFU MAPK11 (11762145_a_at) / Fold change /veh MAPK11 (11762145_a_at) / RFU FIZ1 (11724087_x_at) / Fold change /veh FIZ1 (11724087_x_at) / RFU OASL (11726364_x_at) / Fold change /veh OASL (11726364_x_at) / RFU SOX15 (11748057_x_at) / Fold change /veh SOX15 (11748057_x_at) / RFU CD79A (11719716_a_at) / Fold change /veh CD79A (11719716_a_at) / RFU HIST1H1D (11736915_at) / Fold change /veh HIST1H1D (11736915_at) / RFU CASKIN2 (11723855_a_at) / Fold change /veh CASKIN2 (11723855_a_at) / RFU LOC730098 (11760151_x_at) / Fold change /veh LOC730098 (11760151_x_at) / RFU OR4N2 (11742367_at) / Fold change /veh OR4N2 (11742367_at) / RFU PRRT2 (11749266_a_at) / Fold change /veh PRRT2 (11749266_a_at) / RFU SNX32 (11753110_a_at) / Fold change /veh SNX32 (11753110_a_at) / RFU CDHR5 (11726645_a_at) / Fold change /veh CDHR5 (11726645_a_at) / RFU RCAN1 (11760418_a_at) / Fold change /veh RCAN1 (11760418_a_at) / RFU FAM167A (11723789_a_at) / Fold change /veh FAM167A (11723789_a_at) / RFU FAM26E (11764081_at) / Fold change /veh FAM26E (11764081_at) / RFU ISYNA1 (11749810_s_at) / Fold change /veh ISYNA1 (11749810_s_at) / RFU ACY1 (11761880_at) / Fold change /veh ACY1 (11761880_at) / RFU 11764098_at / Fold change /veh 11764098_at / RFU SAMD14 (11745864_x_at) / Fold change /veh SAMD14 (11745864_x_at) / RFU NPB (11741838_a_at) / Fold change /veh NPB (11741838_a_at) / RFU TMPRSS6 (11731388_a_at) / Fold change /veh TMPRSS6 (11731388_a_at) / RFU KRTAP10-2 (11738614_at) / Fold change /veh KRTAP10-2 (11738614_at) / RFU ARHGAP8 /// PRR5-ARHGAP8 (11727945_x_at) / Fold change /veh ARHGAP8 /// PRR5-ARHGAP8 (11727945_x_at) / RFU KRTAP5-7 /// NADSYN1 (11734609_at) / Fold change /veh KRTAP5-7 /// NADSYN1 (11734609_at) / RFU RASL12 (11751679_a_at) / Fold change /veh RASL12 (11751679_a_at) / RFU CDKN2B (11736163_a_at) / Fold change /veh CDKN2B (11736163_a_at) / RFU PRF1 (11729649_at) / Fold change /veh PRF1 (11729649_at) / RFU, ZNF638 /// ZNF638-IT1 / Fold change vs veh, ZNF638 /// ZNF638-IT1 / RFU, PANK3 / Fold change vs veh, PANK3 / RFU, SH3YL1 / Fold change vs veh, SH3YL1 / RFU, ZEB2 / Fold change vs veh, ZEB2 / RFU, NRIP1 / Fold change vs veh, NRIP1 / RFU, PTTG1IP / Fold change vs veh, PTTG1IP / RFU, CAPN2 / Fold change vs veh, CAPN2 / RFU, MED14 / Fold change vs veh, MED14 / RFU, SNORA58 / Fold change vs veh, SNORA58 / RFU, C1orf63 / Fold change vs veh, C1orf63 / RFU, LRRFIP1 / Fold change vs veh, LRRFIP1 / RFU, NDUFAF7 / Fold change vs veh, NDUFAF7 / RFU, SLC12A2 / Fold change vs veh, SLC12A2 / RFU, IBTK / Fold change vs veh, IBTK / RFU, ESF1 / Fold change vs veh, ESF1 / Fold change vs veh, TMEM50B / RFU, TAOK1 / Fold change vs veh, TAOK1 / RFU, ACBD3 / Fold change vs veh, ACBD3 / RFU, TMA16 / Fold change vs veh, TMA16 / RFU, RWDD3 / Fold change vs veh, RWDD3 / RFU, BCAT1 / Fold change vs veh, BCAT1 / RFU, EDEM3 / Fold change vs veh, EDEM3 / RFU, TMEM33 / Fold change vs veh, TMEM33 / RFU, WDR75 / Fold change vs veh, WDR75 / RFU, AHCTF1 / Fold change vs veh, AHCTF1 / RFU, TFRC / Fold change vs veh, TFRC / RFU, ZDHHC17 / Fold change vs veh, ZDHHC17 / RFU, NOM1 / Fold change vs veh, NOM1 / RFU, ARL8B / Fold change vs veh, ARL8B / RFU, ZBTB11 / Fold change vs veh, ZBTB11 / RFU, TAMM41 / Fold change vs veh, TAMM41 / RFU, KIAA1704 /// LOC100996395 / Fold change vs veh, KIAA1704 /// LOC100996395 / RFU, ING1 / Fold change vs veh, ING1 / RFU, TRMT61B / Fold change vs veh, TRMT61B / RFU, FUBP3 / Fold change vs veh, FUBP3 / RFU, TP53 / Fold change vs veh, TP53 / RFU, TNKS2 / Fold change vs veh, TNKS2 / RFU, ZFP14 / Fold change vs veh, ZFP14 / RFU, ACTR2 / Fold change vs veh, ACTR2 / RFU, PPP3R1 / Fold change vs veh, PPP3R1 / RFU, PIK3R1 / Fold change vs veh, PIK3R1 / RFU, HNRNPA1 / Fold change vs veh, HNRNPA1 / RFU, RNF170 / Fold change vs veh, RNF170 / RFU, ZNF28 / Fold change vs veh, ZNF28 / RFU, RNGTT / Fold change vs veh, RNGTT / RFU, OGT / Fold change vs veh, OGT / RFU, BRD1 / Fold change vs veh, BRD1 / RFU, MARS / Fold change vs veh, MARS / RFU, ZNF655 / Fold change vs veh, ZNF655 / RFU, FAHD1 / Fold change vs veh, FAHD1 / RFU, BDP1 / Fold change vs veh, BDP1 / RFU, LRRCC1 / Fold change vs veh, LRRCC1 / RFU, ARID1A / Fold change vs veh, ARID1A / RFU, ZNF146 / Fold change vs veh, ZNF146 / RFU, ZNF330 / Fold change vs veh, ZNF330 / RFU, GPN3 / Fold change vs veh, GPN3 / RFU, C9orf123 / Fold change vs veh, C9orf123 / RFU, N4BP2L2 / Fold change vs veh, N4BP2L2 / RFU, ARFIP1 / Fold change vs veh, ARFIP1 / RFU, FAM179B / Fold change vs veh, FAM179B / RFU, BCL10 / Fold change vs veh, BCL10 / RFU, UHRF1BP1L / Fold change vs veh, UHRF1BP1L / RFU, BET1 / Fold change vs veh, BET1 / RFU, CNOT2 / Fold change vs veh, CNOT2 / RFU, ZNF268 / Fold change vs veh, ZNF268 / Fold change vs veh, ZNF507 / RFU, DGCR2 / Fold change vs veh, DGCR2 / RFU, WDSUB1 / Fold change vs veh, WDSUB1 / Fold change vs veh, HSP90B1 /// MIR3652 / RFU, ADSS / Fold change vs veh, ADSS / RFU, GK / Fold change vs veh, GK / RFU, ZNF148 / Fold change vs veh, ZNF148 / RFU, TAF9 / Fold change vs veh, TAF9 / RFU, SLC1A5 / Fold change vs veh, SLC1A5 / RFU, SLMO2 / Fold change vs veh, SLMO2 / RFU, ABCC4 / Fold change vs veh, ABCC4 / RFU, LOC101060439 /// RAP1B / Fold change vs veh, LOC101060439 /// RAP1B / RFU, RFX7 / Fold change vs veh, RFX7 / RFU, GTPBP10 / Fold change vs veh, GTPBP10 / RFU, CNEP1R1 / Fold change vs veh, CNEP1R1 / RFU, BIVM-ERCC5 /// ERCC5 / Fold change vs veh, BIVM-ERCC5 /// ERCC5 / RFU, ILF3 / Fold change vs veh, ILF3 / RFU 11762660_at / Fold change /veh 11762660_at / RFU VCAN (11757783_s_at) / Fold change /veh VCAN (11757783_s_at) / RFU DDX43 (11728927_at) / Fold change /veh DDX43 (11728927_at) / RFU KRT8 (11758188_x_at) / Fold change /veh KRT8 (11758188_x_at) / RFU NKD1 (11759106_at) / Fold change /veh NKD1 (11759106_at) / RFU SRD5A1 (11742802_a_at) / Fold change /veh SRD5A1 (11742802_a_at) / RFU TPSAB1 /// TPSB2 (11721975_s_at) / Fold change /veh TPSAB1 /// TPSB2 (11721975_s_at) / RFU GSTM3 (11746129_a_at) / Fold change /veh GSTM3 (11746129_a_at) / RFU IL23R (11737362_x_at) / Fold change /veh IL23R (11737362_x_at) / RFU TMEM51 (11727254_a_at) / Fold change /veh TMEM51 (11727254_a_at) / RFU PIWIL2 (11732686_x_at) / Fold change /veh PIWIL2 (11732686_x_at) / RFU ORM1 (11744905_x_at) / Fold change /veh ORM1 (11744905_x_at) / RFU CCDC152 (11743942_at) / Fold change /veh CCDC152 (11743942_at) / RFU ECM1 (11717891_a_at) / Fold change /veh ECM1 (11717891_a_at) / RFU IL23R (11748794_a_at) / Fold change /veh IL23R (11748794_a_at) / RFU TNFAIP8L3 (11732012_x_at) / Fold change /veh TNFAIP8L3 (11732012_x_at) / RFU MBOAT4 (11741988_at) / Fold change /veh MBOAT4 (11741988_at) / RFU 11764193_at / Fold change /veh 11764193_at / RFU TMEM53 (11763286_at) / Fold change /veh TMEM53 (11763286_at) / RFU MAGEB2 (11727129_at) / Fold change /veh MAGEB2 (11727129_at) / RFU TMEM200A (11744735_a_at) / Fold change /veh TMEM200A (11744735_a_at) / RFU CCDC152 (11751479_a_at) / Fold change /veh CCDC152 (11751479_a_at) / RFU FAM211A (11726209_a_at) / Fold change /veh FAM211A (11726209_a_at) / RFU RGS16 (11746705_a_at) / Fold change /veh RGS16 (11746705_a_at) / RFU VCAN (11755009_s_at) / Fold change /veh VCAN (11755009_s_at) / RFU RHOB (11743442_s_at) / Fold change /veh RHOB (11743442_s_at) / RFU RGS16 (11720943_a_at) / Fold change /veh RGS16 (11720943_a_at) / RFU RGS16 (11720944_at) / Fold change /veh RGS16 (11720944_at) / RFU, VPS4B / Fold change vs veh, VPS4B / RFU, CREB1 / Fold change vs veh, CREB1 / RFU, DNAJC13 / Fold change vs veh, DNAJC13 / RFU, GNAQ / Fold change vs veh, GNAQ / RFU, CDK5R1 / Fold change vs veh, CDK5R1 / RFU, ZRANB3 / Fold change vs veh, ZRANB3 / RFU, CUL4A / Fold change vs veh, CUL4A / RFU, CCNY / Fold change vs veh, CCNY / RFU, UFL1 / Fold change vs veh, UFL1 / RFU, COG3 / Fold change vs veh, COG3 / RFU, DIAPH2 / Fold change vs veh, DIAPH2 / RFU, SKA2 / Fold change vs veh, SKA2 / RFU, AFF3 / Fold change vs veh, AFF3 / RFU, LMF1 / Fold change vs veh, LMF1 / RFU, IPO11 / Fold change vs veh, IPO11 / RFU, DFFB / Fold change vs veh, DFFB / RFU, FOXP1 / Fold change vs veh, FOXP1 / RFU, CARD8 / Fold change vs veh, CARD8 / RFU, STRN3 / Fold change vs veh, STRN3 / RFU, ADK / Fold change vs veh, ADK / RFU, RASSF2 / Fold change vs veh, RASSF2 / RFU, WIPF1 / Fold change vs veh, WIPF1 / RFU, LARP1B / Fold change vs veh, LARP1B / RFU, RASA1 / Fold change vs veh, RASA1 / RFU, RB1 / Fold change vs veh, RB1 / RFU, PPFIA1 / Fold change vs veh, PPFIA1 / RFU, MAT2A / Fold change vs veh, MAT2A / RFU, CCT5 / Fold change vs veh, CCT5 / RFU, WDR92 / Fold change vs veh, WDR92 / RFU, CUX1 / Fold change vs veh, CUX1 / RFU, TTC7A / Fold change vs veh, TTC7A / RFU, TMEM135 / Fold change vs veh, TMEM135 / RFU, DEPTOR / Fold change vs veh, DEPTOR / RFU, CPM / Fold change vs veh, CPM / RFU, DNAJB6 / Fold change vs veh, DNAJB6 / RFU, CACNA2D3 / Fold change vs veh, CACNA2D3 / RFU, DTX4 / Fold change vs veh, DTX4 / RFU, TFCP2 / Fold change vs veh, TFCP2 / RFU, GMCL1 /// GMCL1P1 / Fold change vs veh, GMCL1 /// GMCL1P1 / RFU, AEBP2 / Fold change vs veh, AEBP2 / RFU, SNHG1 /// SNORD22 /// SNORD25 /// SNORD26 /// SNORD27 /// SNORD28 /// SNORD29 /// SNORD31 / Fold change vs veh, SNHG1 /// SNORD22 /// SNORD25 /// SNORD26 /// SNORD27 /// SNORD28 /// SNORD29 /// SNORD31 / Fold change (Aza/veh), C12orf56 (ProbeSet 11735607_a_at) / Fold change (ACY-1035/veh), C12orf56 (ProbeSet 11735607_a_at) / Fold change (Aza/veh), FGFR1OP (ProbeSet 11751329_s_at) / Fold change (ACY-1035/veh), FGFR1OP (ProbeSet 11751329_s_at) / Fold change (Aza/veh), VPS36 (ProbeSet 11739960_a_at) / Fold change (ACY-1035/veh), VPS36 (ProbeSet 11739960_a_at) / RFU SYPL1 (11715823_x_at) / Fold change /veh SYPL1 (11715823_x_at) / RFU IGFBP7 (11715501_s_at) / Fold change /veh IGFBP7 (11715501_s_at) / RFU REEP3 (11722064_at) / Fold change /veh REEP3 (11722064_at) / RFU IGLL1 (11728026_x_at) / Fold change /veh IGLL1 (11728026_x_at): dose or concentration left out as unconfirmed
Conditions: ProbeSet 11743362_s_at; LIST B

How did the “Fold change vs veh, ADSS” value turn out when `Nc1ccc(-c2cccs2)cc1NC(=O)c1ccc2c(c1)cc(C1CC1)n2CCN1CCOCC1` [ACY-1035] was run?
Its value is 0.95.
